Laboratory results published in ChEMBL document CHEMBL3351982, “Microwave-assisted synthesis and biological evaluation of 3,4-diaryl maleic anhydride/N-substituted maleimide derivatives as combretastatin A-4 analogues” (Bioorg Med Chem Lett, 2015).
pIC50: −log10 of the molar value.

Tests used:
[1] = Cytotoxicity against human HT1080 cells assessed as cell growth inhibition after 72 hrs by MTT assay; type: functional, cell-based; details: HT-1080, 72 h
[2] = Cytotoxicity against human SGC7901 cells assessed as cell growth inhibition after 72 hrs by MTT assay; type: functional, cell-based; details: SGC-7901, 72 h
KB = assay: Cytotoxicity against human KB cells assessed as cell growth inhibition after 72 hrs by MTT assay; type: functional, cell-based
Tubulin (Bos taurus) = Tubulin (Bos taurus) (UniProt Q6B856+Q862L2+Q862F3); assay: (§1) Inhibition of bovine brain tubulin polymerization
Tubulin = Tubulin (Bos taurus, UniProt Q6B856+Q862L2+Q862F3); assay: as §1

| SMILES | pIC50 [1] | pIC50 [2] | pIC50 (KB) | inhibition (Tubulin (Bos taurus)) | IC50 (Tubulin) |
| --- | --- | --- | --- | --- | --- |
| COc1cc(C2=C(c3ccc4ccccc4c3)C(=O)N(C)C2=O)cc(OC)c1OC | 4.65 | 4.91 | 4.78 | – | – |
| COc1ccc(C2=C(c3cc(OC)c(OC)c(OC)c3)C(=O)N(O)C2=O)cc1O | 5.62 | 5.35 | 5.17 | – | – |
| COc1ccc(/C=C\c2cc(OC)c(OC)c(OC)c2)cc1O [COMBRETASTATIN A4] | 8.10 | 7.55 | – | – | – |
| COc1ccc(C2=C(c3cc(OC)c(OC)c(OC)c3)C(=O)OC2=O)cc1O | < 4.52 | 4.55 | < 4.52 | – | – |
| COc1ccc(C2=C(c3cc(OC)c(OC)c(OC)c3)C(=O)N(OC)C2=O)cc1O | < 4.52 | < 4.52 | < 4.52 | – | – |
| COc1cc(C2=C(c3ccc4ccccc4c3)C(=O)N(OC)C2=O)cc(OC)c1OC | < 4.52 | < 4.52 | < 4.52 | – | – |
| COc1cc(C2=C(c3ccc4ccccc4c3)C(=O)N(O)C2=O)cc(OC)c1OC | 5.19 | 4.78 | 5.00 | – | – |
| COc1ccc(C2=C(c3cc(OC)c(OC)c(OC)c3)C(=O)N(C)C2=O)cc1O | 4.88 | 5.60 | 5.52 | – | – |
| COc1cc(C2=C(c3ccc4ccccc4c3)C(=O)OC2=O)cc(OC)c1OC | < 4.52 | < 4.52 | < 4.52 | – | – |
| COc1ccc(C2=C(c3cc(OC)c(OC)c(OC)c3)C(=O)N(OC)C2=O)cc1 | < 4.52 | < 4.52 | < 4.52 | – | – |
| COc1ccc(C2=C(c3cc(OC)c(OC)c(OC)c3)C(=O)N(O)C2=O)cc1N | 6.19 | 5.89 | 5.96 | Dose-dependent effect | 3 µM |
| COc1ccc(C2=C(c3cc(OC)c(OC)c(OC)c3)C(=O)OC2=O)cc1N | 5.62 | 5.80 | 5.64 | – | – |
| COc1ccc(C2=C(c3cc(OC)c(OC)c(OC)c3)C(=O)N(O)C2=O)cc1 | 5.39 | 5.28 | 5.25 | – | – |
| COc1ccc(C2=C(c3cc(OC)c(OC)c(OC)c3)C(=O)N(C)C2=O)cc1N | 6.12 | 5.82 | 5.89 | – | – |
| COc1ccc(C2=C(c3cc(OC)c(OC)c(OC)c3)C(=O)N(C)C2=O)cc1 | 4.81 | 4.91 | 4.85 | – | – |
| COc1ccc(C2=C(c3cc(OC)c(OC)c(OC)c3)C(=O)N(OC)C2=O)cc1N | < 4.52 | < 4.52 | < 4.52 | – | – |
| COc1ccc(C2=C(c3cc(OC)c(OC)c(OC)c3)C(=O)OC2=O)cc1 | 4.78 | 4.88 | 4.97 | – | – |
